From ChEMBL document CHEMBL1138903, “Secondary amides of sulfonylated 3-amidinophenylalanine. New potent and selective inhibitors of matriptase” (J Med Chem, 2006)

Columns and labels:
Coagulation factor X = Coagulation factor X (Homo sapiens, UniProt P00742); test: Inhibition of f10a
Prothrombin = Prothrombin (Homo sapiens, UniProt P00734); test: Inhibition of thrombin
Plasminogen = Plasminogen (Homo sapiens, UniProt P00747); test: Inhibition of plasmin
[1] = target: Urokinase-type plasminogen activator (Homo sapiens, UniProt P00749); test: Inhibition of uPA
[2] = target: T1, Suppressor of tumorigenicity 14 protein (Homo sapiens, UniProt Q9Y5Y6)
T1 sequence (Q9Y5Y6 whole entry): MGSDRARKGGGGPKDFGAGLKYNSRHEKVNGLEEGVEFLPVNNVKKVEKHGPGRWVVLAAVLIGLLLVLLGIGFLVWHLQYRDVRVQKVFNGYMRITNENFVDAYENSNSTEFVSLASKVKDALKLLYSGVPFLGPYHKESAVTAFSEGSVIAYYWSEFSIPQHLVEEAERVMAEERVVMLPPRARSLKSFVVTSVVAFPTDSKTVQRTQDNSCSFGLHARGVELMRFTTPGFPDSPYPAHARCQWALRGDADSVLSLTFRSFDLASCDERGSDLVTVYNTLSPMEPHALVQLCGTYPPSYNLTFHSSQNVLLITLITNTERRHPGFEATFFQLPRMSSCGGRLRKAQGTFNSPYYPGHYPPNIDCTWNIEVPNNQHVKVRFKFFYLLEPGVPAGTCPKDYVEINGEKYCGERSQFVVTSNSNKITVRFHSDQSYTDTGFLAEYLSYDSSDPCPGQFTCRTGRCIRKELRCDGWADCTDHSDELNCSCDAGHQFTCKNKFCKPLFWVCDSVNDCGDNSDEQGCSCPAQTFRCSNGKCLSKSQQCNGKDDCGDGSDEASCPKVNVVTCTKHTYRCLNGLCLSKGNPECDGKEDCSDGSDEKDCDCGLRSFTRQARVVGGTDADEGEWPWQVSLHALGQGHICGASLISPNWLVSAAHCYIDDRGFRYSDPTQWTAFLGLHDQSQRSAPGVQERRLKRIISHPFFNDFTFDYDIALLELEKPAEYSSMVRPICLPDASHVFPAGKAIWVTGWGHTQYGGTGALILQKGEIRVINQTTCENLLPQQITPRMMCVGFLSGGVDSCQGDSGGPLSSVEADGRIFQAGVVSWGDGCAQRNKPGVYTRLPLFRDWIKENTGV

Sequence of Coagulation factor X (P00742 41-179 limits assumed): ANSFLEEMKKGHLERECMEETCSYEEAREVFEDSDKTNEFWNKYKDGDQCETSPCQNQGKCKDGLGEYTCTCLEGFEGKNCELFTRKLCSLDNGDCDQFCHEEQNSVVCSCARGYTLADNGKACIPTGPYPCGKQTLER
Sequence of Coagulation factor X (P00742 235-488 limits assumed): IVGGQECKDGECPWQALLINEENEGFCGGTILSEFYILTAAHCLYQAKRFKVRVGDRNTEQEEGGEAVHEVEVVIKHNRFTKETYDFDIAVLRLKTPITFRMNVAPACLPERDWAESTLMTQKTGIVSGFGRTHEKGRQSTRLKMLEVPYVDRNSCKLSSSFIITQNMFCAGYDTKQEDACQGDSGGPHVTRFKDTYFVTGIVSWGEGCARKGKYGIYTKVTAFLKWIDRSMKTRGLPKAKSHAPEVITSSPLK
Sequence of Plasminogen (P00747 97-580 limits assumed): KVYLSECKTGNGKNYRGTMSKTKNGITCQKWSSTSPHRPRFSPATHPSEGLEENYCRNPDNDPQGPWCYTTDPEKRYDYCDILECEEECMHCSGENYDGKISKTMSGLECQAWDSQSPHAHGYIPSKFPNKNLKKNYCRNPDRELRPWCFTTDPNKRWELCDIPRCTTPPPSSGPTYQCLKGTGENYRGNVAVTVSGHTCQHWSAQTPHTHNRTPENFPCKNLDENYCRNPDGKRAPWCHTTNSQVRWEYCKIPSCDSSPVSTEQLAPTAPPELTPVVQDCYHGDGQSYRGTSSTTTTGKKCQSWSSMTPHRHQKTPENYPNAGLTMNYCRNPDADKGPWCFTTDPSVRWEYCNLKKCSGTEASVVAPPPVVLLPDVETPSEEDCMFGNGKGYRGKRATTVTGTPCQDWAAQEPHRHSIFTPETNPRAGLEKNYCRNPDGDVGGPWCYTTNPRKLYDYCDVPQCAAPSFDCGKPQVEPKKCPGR
Sequence of Plasminogen (P00747 581-810 limits assumed): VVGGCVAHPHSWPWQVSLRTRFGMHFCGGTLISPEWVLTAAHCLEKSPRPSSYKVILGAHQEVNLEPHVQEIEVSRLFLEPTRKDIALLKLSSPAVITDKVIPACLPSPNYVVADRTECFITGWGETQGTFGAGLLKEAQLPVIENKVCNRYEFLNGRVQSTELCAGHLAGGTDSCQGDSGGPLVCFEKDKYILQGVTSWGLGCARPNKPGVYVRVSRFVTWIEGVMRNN

| Compound | Ki (Coagulation factor X) [µM] | Ki (Prothrombin) [µM] | Ki (Plasminogen) [µM] | Ki [1] [µM] | Ki [2] [µM] |
| --- | --- | --- | --- | --- | --- |
| N=C(N)c1cccc(C[C@H](NS(=O)(=O)c2ccc(C3CCCCC3)cc2)C(=O)N2CCNCC2)c1 | 1.1 | 0.17 | 2.8 | 6.6 | – |
| CC(C)c1cc(C(C)C)c(S(=O)(=O)N[C@@H](Cc2cccc(C(=N)N)c2)C(=O)N2CCCN(C(=O)C3CCNCC3)CC2)c(C(C)C)c1 | 5.8 | 5 | 0.26 | 2.5 | – |
| N=C(N)NCCC1CCN(C(=O)[C@H](Cc2cccc(C(=N)N)c2)NS(=O)(=O)c2ccc(Oc3ccccc3)cc2)CC1 | 1 | 0.21 | 0.76 | 2.3 | 0.038 |
| N=C(N)c1cccc(C[C@H](NS(=O)(=O)c2ccc3c(c2)C(=O)c2ccccc2C3=O)C(=O)N2CCC(C(=O)NCCN)CC2)c1 | 4 | 0.42 | 3.1 | 7.7 | 0.021 |
| CC(C)c1cc(C(C)C)c(S(=O)(=O)NC(Cc2cccc(C(=N)N)c2)C(=O)N2CCN(C(=O)CN)CC2)c(C(C)C)c1 (racemic) | 10.5 | 0.2 | 3.4 | 8.9 | 0.69 |
| CCOC(=O)N1CCN(C(=O)[C@H](Cc2cccc(C(=N)N)c2)NS(=O)(=O)c2c(C(C)C)cc(C(C)C)cc2C(C)C)CC1 | 1.7 | – | – | – | – |
| CC(C)c1cc(C(C)C)c(S(=O)(=O)N[C@@H](Cc2cccc(C(=N)N)c2)C(=O)N2CCNCC2)c(C(C)C)c1 | 4.6 | 1.3 | 0.8 | 0.87 | 0.1 |
| CCC(=O)N1CCN(C(=O)[C@H](Cc2cccc(C(=N)N)c2)NS(=O)(=O)c2ccc3c(c2)C(=O)c2ccccc2C3=O)CC1 | 1.3 | 0.054 | 6 | 31 | – |
| N=C(N)c1cccc(C[C@H](NS(=O)(=O)c2ccc(-c3ccccc3)cc2)C(=O)N2CCN(C(=O)C3CCN(C(=N)N)CC3)CC2)c1 | 2.8 | 1.3 | 1.4 | 12 | – |
| N=C(N)c1cccc(C[C@H](NS(=O)(=O)c2ccc3ccccc3c2)C(=O)N2CCC(C3CCN(C(=N)N)CC3)CC2)c1 | 25 | 1.8 | 1.4 | 1.3 | – |
| CC(C)c1cc(C(C)C)c(S(=O)(=O)N[C@@H](Cc2cccc(C(=N)N)c2)C(=O)N2CCN(C(=O)C3CCNCC3)CC2)c(C(C)C)c1 | 17 | 5.4 | 1.3 | 1.2 | – |
| N=C(N)c1cccc(C[C@H](NS(=O)(=O)CCc2cccc3ccccc23)C(=O)N2CCN(C(=O)CCN=C(N)N)CC2)c1 | 80 | 1.5 | 4.2 | 56 | 0.69 |
| N=C(N)NCCC1CCN(C(=O)[C@H](Cc2cccc(C(=N)N)c2)NS(=O)(=O)c2ccc(C3CCCCC3)cc2)CC1 | 1.8 | 0.051 | 2 | 1.9 | 0.088 |
| CC(C)c1cc(C(C)C)c(S(=O)(=O)N[C@@H](Cc2cccc(C(=N)N)c2)C(=O)N2CCN(C(=O)CCCN)CC2)c(C(C)C)c1 | 13 | 9.4 | 0.64 | 1.1 | 0.14 |
| N=C(N)c1cccc(C[C@H](NS(=O)(=O)c2cccc(NC(=O)CN)c2)C(=O)N2CCC(CCN)CC2)c1 | 35 | 7 | 4.5 | 11 | – |
| N=C(N)c1cccc(C[C@H](NS(=O)(=O)c2cccc(NC(=O)CCCN)c2)C(=O)N2CCC(CCN)CC2)c1 | 23 | 21 | 2.5 | 8 | – |
| N=C(N)c1cccc(C[C@H](NS(=O)(=O)c2ccc3ccccc3c2)C(=O)N2CCC(C3CCNCC3)CC2)c1 | 24 | 12 | 0.21 | 2.2 | – |
| CC(C)c1cc(C(C)C)c(S(=O)(=O)N[C@@H](Cc2cccc(C(=N)N)c2)C(=O)N2CCN(C(=O)CCN)CC2)c(C(C)C)c1 | 15 | 3.3 | 0.44 | – | – |
| CC(C)c1cc(C(C)C)c(S(=O)(=O)N[C@@H](Cc2cccc(C(=N)N)c2)C(=O)N2CCCN(C(=O)CCN)CC2)c(C(C)C)c1 | 5.3 | 0.49 | 0.36 | 1.2 | – |

The next lines start with the values.

| Ki (Coagulation factor X) [µM] | Ki (Prothrombin) [µM] | Ki (Plasminogen) [µM] | Ki [1] [µM] | Ki [2] [µM] | Compound |
| --- | --- | --- | --- | --- | --- |
| 56 | 1.4 | 2.8 | 6.9 | 0.21 | N=C(N)NCCC(=O)N1CCN(C(=O)[C@H](Cc2cccc(C(=N)N)c2)NS(=O)(=O)c2ccc3ccccc3c2)CC1 |
| 2.3 | 0.27 | 0.84 | 3.6 | 0.053 | N=C(N)c1cccc(C[C@H](NS(=O)(=O)c2ccc(Cc3ccncc3)cc2)C(=O)N2CCC(CCN=C(N)N)CC2)c1 |
| 66 | 0.6 | 0.73 | 2.1 | 0.16 | N=C(N)c1cccc(C[C@H](NS(=O)(=O)c2ccc3ccccc3c2)C(=O)N2CCC(CCCN)CC2)c1 |
| 5 | 20 | 1.8 | 0.62 | 0.14 | CC(C)c1cc(C(C)C)c(S(=O)(=O)N[C@@H](Cc2cccc(C(=N)N)c2)C(=O)N2CCC(C(=O)NCCN=C(N)N)CC2)c(C(C)C)c1 |
| 3.7 | 13 | 1.8 | 1.6 | – | CC(C)c1cc(C(C)C)c(S(=O)(=O)N[C@@H](Cc2cccc(C(=N)N)c2)C(=O)N2CCN(C(=N)N)CC2)c(C(C)C)c1 |
| 2.8 | 1.8 | 7.2 | 26 | 0.053 | N=C(N)NCCC(=O)N1CCN(C(=O)[C@H](Cc2cccc(C(=N)N)c2)NS(=O)(=O)c2ccc3c(c2)C(=O)c2ccccc2C3=O)CC1 |
| 1.2 | 0.62 | 0.44 | 0.81 | 0.065 | CC(C)c1cc(C(C)C)c(S(=O)(=O)N[C@@H](Cc2cccc(C(=N)N)c2)C(=O)N2CCCN(C(=O)CCN=C(N)N)CC2)c(C(C)C)c1 |
| 2.3 | 0.12 | 0.78 | 10.5 | 0.089 | N=C(N)NCCC(=O)N1CCN(C(=O)[C@H](Cc2cccc(C(=N)N)c2)NS(=O)(=O)c2ccc(C3CCCCC3)cc2)CC1 |
| 2 | 4 | 1.8 | 1.2 | 0.0042 | N=C(N)NCCC(=O)Nc1cccc(S(=O)(=O)N[C@@H](Cc2cccc(C(=N)N)c2)C(=O)N2CCC(CCNC(=N)N)CC2)c1 |
| 15 | 13 | 2.7 | 1.5 | 0.005 | N=C(N)c1cccc(C[C@H](NS(=O)(=O)c2cccc(NC(=O)CCN)c2)C(=O)N2CCC(CCCN)CC2)c1 |
| – | – | – | – | 0.082 | CC(C)c1cc(C(C)C)c(S(=O)(=O)NC(Cc2cccc(C(=N)N)c2)C(=O)N2CCN(C(=O)CCN=C(N)N)CC2)c(C(C)C)c1 (configuration not stated) |
| 9 | 1.2 | 0.82 | 1.5 | 0.33 | CC(C)c1cc(C(C)C)c(S(=O)(=O)NC(Cc2cccc(C(=N)N)c2)C(=O)N2CCN(C(=O)CN=C(N)N)CC2)c(C(C)C)c1 (racemic) |
| 2.9 | 1.6 | 1.4 | 0.82 | 0.057 | CC(C)c1cc(C(C)C)c(S(=O)(=O)N[C@@H](Cc2cccc(C(=N)N)c2)C(=O)N2CCN(C(=O)CCN=C(N)N)CC2)c(C(C)C)c1 |
| > 1000 | 3 | 10.2 | 25 | 0.73 | Cc1c(C)c(S(=O)(=O)N[C@@H](Cc2cccc(C(=N)N)c2)C(=O)N2CCN(C(=O)CCN=C(N)N)CC2)c(C)c2c1OC(C)(C)C2 |
| 10 | 0.58 | 3.1 | 4 | 0.25 | N=C(N)NCCC(=O)N1CCN(C(=O)[C@H](Cc2cccc(C(=N)N)c2)NS(=O)(=O)c2ccc(-c3ccccc3)cc2)CC1 |
| 2.8 | 4.2 | 0.88 | 0.26 | 0.061 | CC(C)c1cc(C(C)C)c(S(=O)(=O)N[C@@H](Cc2cccc(C(=N)N)c2)C(=O)N2CCN(C(=O)CCCN=C(N)N)CC2)c(C(C)C)c1 |
| 4.6 | 0.46 | 3.2 | 6.1 | – | N=C(N)NCCC(=O)N1CCN(C(=O)[C@H](Cc2cccc(C(=N)N)c2)NS(=O)(=O)c2ccc3cc4ccccc4cc3c2)CC1 |
| 76 | 0.21 | 1.4 | 2.3 | – | N=C(N)c1cccc(C[C@H](NS(=O)(=O)c2ccc3ccccc3c2)C(=O)N2CCC(CCN)CC2)c1 |
| – | – | – | – | 14 | Cc1ccc(S(=O)(=O)NC(Cc2cccc(C(=N)N)c2)C(=O)N2CCCCC2)cc1 (configuration not stated) |
| 10 | 5 | 0.6 | 1.1 | – | CC(C)c1cc(C(C)C)c(S(=O)(=O)N[C@@H](Cc2cccc(C(=N)N)c2)C(=O)N2CCN(C(=O)C3CCN(C(=N)N)CC3)CC2)c(C(C)C)c1 |
